Test results reported in patent US20250171821A1, “HIF-1 ACTIVATORS AND USES THEREOF” (Ramot at Tel-Aviv University Ltd., priority 2022, published 2025).
Entries after “also recorded” stand apart in the source; their conditions may differ.

Legend:
MG-63 osteoblasts = assay: Collagen-I immunofluorescence in MG-63 osteoblasts treated with ML228; assay type: cell-based, human
Experimental: MG-63 human osteosarcoma cell lines were obtained from the American Type Culture Collection (ATCC, Manassas, VA, USA). Cells were cultured in α-MEM supplemented with 10% FCS, 100 U/ml penicillin, and […] streptomycin at 37° C. in a humidified atmosphere incubator containing 5% CO2. Before treatment with ML228, 5,000 and 50,000 cells/well were seeded in a 96 or 24 well-plate, respectively.
Cells were cultured to sub-confluence on a 96-well plate culture plate or on round-glass cover slips in a 24 well plate and incubated with ML228 at 37° C. in 5% CO2 for 24-96 hours. […] Fluorescence readouts were obtained with excitation/emission (ex/em) of 495/519 nanometer (nm; green) and 340/488 nm (blue) (for FIGS. 2B and 2D); or with ex/em of 358/461 nm (blue), 495/519 nm (green) and 652/668 nm (red) (for FIG. 5A).
All images were analyzed with the computer-based image analysis system (Image J) using the Fiji 2 software (National Institute of Health). Equal field areas were selected for analysis and quantification of fluorescence signals. Quantification of fluorescence signal intensity measured by color threshold and normalized against β-tubulin intensity. Total collagen was evaluated by total fluorescence area intensity.
The effect of ML228 (chemical structure thereof is depicted in FIG. 1), a known activator of HIF, on fibroblasts and osteoblasts was analyzed. […]

[1] = system: HIF-1α, Collagen-I protein levels in fibroblast cells; assay: Western blot of HIF-1α and Collagen-I in fibroblast lysate; assay type: cell-based, human
Experimental: Cells at a density of 50,000 cells/well in a 24-well plate were cultured for 2 days with variable ML228 concentrations. Cells were sonicated and lysed in a buffer containing 20 mM Tris-HCL pH=7.5 with a protease inhibitor (Abcam, Cambridge, UK) or a protease inhibitor from Merck (539134, Merck). Equal amounts (1 μg) of total protein were loaded and tested using Western blotting. Samples were divided for testing native samples and denaturative samples, which were dependent on each antibody recognition sites. Samples size was separated by a 6% sodium dodecyl sulfate (SDS) gel and transferred to nitrocellulose membranes that was further incubated overnight with primary antibodies of HIF-1α, and β-tubulin. As for detecting Collagen-I, samples were prepared in native conditions absent of SDS and β-mercaptoethanol. Thereafter, samples were separated by a native gel. Detection of Collagen-I was done in 6% native gel enabling observation of non-denatured structural collagen and preventing thermal degradation of the heat sensitive collagen. After extensive washing with TBST (Tris-buffered saline supplemented with 0.1% Tween-20), the membrane was further incubated with an HRP-conjugated secondary antibody for 1 hour. Chemiluminescence values were read after the addition of ECL substrate in a ChemiDoc imager (Biorad CA, USA).

NIH/3T3 cell line = assay: Alamar blue viability assay in NIH/3T3 cells; assay type: cell-based, mouse; conditions: 0.31-5 μM ML228, 48 hours, p<0.0001
Experimental: Embryonic mouse fibroblast NIH/3T3 cell line (ATCC) were seeded at a concentration of 50*10^3 cells/well on 96 well glass bottom plate (P96-1.5H-N, Cellvis) for the immunofluorescence experiment and on cell culture microplate, 96 well, PS, F-Bottom (655090, greiner) for the viability experiment. The cells were cultured with Dulbecco's modified Eagle's medium (DMEM) supplemented with 10% fetal calf serum, 1% Penicillin-Streptomycin solution and 1% L-glutamine (All purchased from Rhenium). At 24 hours post seeding, cells were treated for another 48 hours by replacing them with the cell medium supplemented with a serial dilution (5-0.02 μM, factor dilution of 2) of the ML228, Daprodustat, Enarodustat, Molidustat, Vadadustat or Roxadustat molecules dissolved in DMSO. The final DMSO concentration in the cell medium was 0.01%. […]
For the ML228 experiment, at 48 hours post treatment, cells were stained by replacing the cell medium with Alamar blue (Enco, Petach Tikvah, Israel) diluted 1:10 in the cell medium, and incubated for 4 hours (37° C., 5% CO2). Then, fluorescence readouts were obtained using the Spark multimode microplate reader (Tecan) at excitation/emission 540±20 nm/590±20 nm. Cell viability was calculated as the percentage difference of treated cells with ML228 relative to the control cells at 590±20 nm emission.

SMILES: c1ccc(-c2ccc(CNc3nc(-c4ccccn4)nnc3-c3ccccc3)cc2)cc1 [ML228, N-([1,1′-Biphenyl]-4-ylmethyl)-6-phenyl-3-(2-pyridinyl)-1,2,4-triazin-5-amine]
- concentration of maximum enhancement of Collagen-I (MG-63 osteoblasts; MG-63, 48 hours, normalized to cell number (DAPI), FIG. 9B): 5 µM
- increase in collagen levels compared to non-treated cells (MG-63 osteoblasts; osteoblasts (MG-63), variable ML228 concentrations, 48 hours): more than a three-fold increase; also recorded: increased
- HIF-1α protein level ([1]; increasing concentrations of ML228, 48 hours): higher levels
- Collagen-I protein level ([1]; increasing concentrations of ML228, 48 hours, native gel): higher levels
- HIF-1α protein level ([1]; low doses of ML228, 48 hours): no HIF-1α protein is observed
- viability compared to untreated cells (NIH/3T3 cell line): lower viability
